Source: patent publication US6569865B2, “Spiro 1-azabicyclo[2.2.2]octane-3,2′(3′h)-furo[2,3-b]pyridine” (priority 2001, dated 2003)

Tests used:
[1] = target: α7 nAChR (Rattus norvegicus, UniProt Q05941); test: Test A: 125I-α-bungarotoxin binding to rat hippocampal membranes (affinity at α7 nAChR subtype)
Description: Test A—Assay for Affinity at α7 nAChR Subtype
125I-α-Bungarotoxin (BTX) binding to rat hippocampal membranes. Rat hippocampi were homogenized in 20 volumes of cold homogenization buffer (HB: concentrations of constituents (mM): tris(hydroxymethyl)aminomethane 50; MgCl2 1; NaCl 120; KCl 5: pH 7.4). The homogenate was centrifuged for 5 minutes at 1000 g, the supernatant was saved and the pellet re-extracted. The pooled supernatants were centrifuged for 20 minutes at 12000 g, washed, and resuspended in HB. Membranes (30-80 μg) were incubated with 5 nM [^125I]α-BTX, 1 mg/mL BSA (bovine serum albumin), test drug, and either 2 mM CaCl2 or 0.5 mM EGTA [ethylene glycol-bis(β-aminoethylether)] for 2 hours at 21° C., and then filtered and washed 4 times over Whatman glass fibre filters (thickness C) using a Brandel cell harvester. […]
IC50 values and pseudo Hill coefficients (nH) were calculated using the non-linear curve-fitting program ALLFIT (DeLean A, Munson P J and Rodbard D (1977) Am. J. Physiol., 235:E97-E102). […]
where a value of n=1 was used whenever nH<1.5 and a value of n=2 was used when nH≧1.5. […] Ki values were determined using 6 or more drug concentrations. […]

[2] = target: α4 nAChR (Rattus norvegicus, UniProt P09483+P12390); assay type: binding
α4 nAChR, sequence (P09483 31-630): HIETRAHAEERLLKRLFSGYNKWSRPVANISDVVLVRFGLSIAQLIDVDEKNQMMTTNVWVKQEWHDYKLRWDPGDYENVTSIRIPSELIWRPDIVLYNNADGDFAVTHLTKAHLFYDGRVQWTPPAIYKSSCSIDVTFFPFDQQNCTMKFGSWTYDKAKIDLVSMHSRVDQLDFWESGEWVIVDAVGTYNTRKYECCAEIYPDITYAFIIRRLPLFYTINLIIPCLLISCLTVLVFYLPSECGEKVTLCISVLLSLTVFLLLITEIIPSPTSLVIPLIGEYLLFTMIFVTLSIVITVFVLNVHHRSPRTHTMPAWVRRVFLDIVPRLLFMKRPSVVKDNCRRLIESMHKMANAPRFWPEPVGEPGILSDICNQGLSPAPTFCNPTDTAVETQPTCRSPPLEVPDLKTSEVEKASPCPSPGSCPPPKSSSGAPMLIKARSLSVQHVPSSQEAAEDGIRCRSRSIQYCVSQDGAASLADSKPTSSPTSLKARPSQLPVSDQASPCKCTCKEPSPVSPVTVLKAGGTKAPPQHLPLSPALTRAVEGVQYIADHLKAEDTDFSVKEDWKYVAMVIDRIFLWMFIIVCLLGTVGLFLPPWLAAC
α4 nAChR, sequence (P12390 25-500): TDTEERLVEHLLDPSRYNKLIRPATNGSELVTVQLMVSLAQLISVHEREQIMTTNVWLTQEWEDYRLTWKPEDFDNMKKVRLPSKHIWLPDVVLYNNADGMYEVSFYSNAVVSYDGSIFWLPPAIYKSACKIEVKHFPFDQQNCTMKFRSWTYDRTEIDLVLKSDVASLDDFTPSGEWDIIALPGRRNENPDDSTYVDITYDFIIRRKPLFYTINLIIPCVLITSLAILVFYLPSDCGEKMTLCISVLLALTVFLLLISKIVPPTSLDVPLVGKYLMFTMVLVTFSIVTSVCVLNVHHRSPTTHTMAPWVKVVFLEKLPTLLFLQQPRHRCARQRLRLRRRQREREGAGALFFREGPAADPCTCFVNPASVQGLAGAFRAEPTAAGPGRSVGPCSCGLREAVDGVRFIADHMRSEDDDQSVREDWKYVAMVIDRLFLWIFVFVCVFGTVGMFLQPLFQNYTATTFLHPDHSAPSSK
Description: Binding Data Analysis for Tests A and B
Ki values were determined using 6 or more drug concentrations.

α7 nAChR, sequence (Q05941 23-502): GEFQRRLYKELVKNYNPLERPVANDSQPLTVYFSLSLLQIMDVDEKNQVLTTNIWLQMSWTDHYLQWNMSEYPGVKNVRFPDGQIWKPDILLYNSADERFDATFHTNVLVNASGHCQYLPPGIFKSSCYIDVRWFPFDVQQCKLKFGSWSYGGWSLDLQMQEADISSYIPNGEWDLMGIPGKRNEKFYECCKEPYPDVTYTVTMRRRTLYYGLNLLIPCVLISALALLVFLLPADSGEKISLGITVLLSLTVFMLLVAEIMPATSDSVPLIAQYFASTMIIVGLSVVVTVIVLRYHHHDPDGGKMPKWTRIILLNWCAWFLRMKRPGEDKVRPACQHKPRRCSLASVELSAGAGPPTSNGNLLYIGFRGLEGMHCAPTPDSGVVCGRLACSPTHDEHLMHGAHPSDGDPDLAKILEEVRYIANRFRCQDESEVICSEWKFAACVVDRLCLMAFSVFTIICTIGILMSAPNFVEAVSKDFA

Compound | Kd ([1]; read-out: KD of radioligand from saturation curves (one site model)) | Ki ([1]; 125I-α-BTX displacement, rat hippocampal membranes) | nAChR Binding Selectivity (Ratio α4 Ki/α7 Ki) [2]
125I-α-Bungarotoxin [Compound 125I-α-BTX, reference compound] | 1670 pM |  | 
c1cc(-c2cnc3c(c2)C[C@@]2(CN4CCC2CC4)O3)co1 [Compound 3, (2′R)-5′-(3-furanyl)spiro[1-azabicyclo[2.2.2]octane-3,2′(3′H)-furo[2,3-b]pyridine]] |  | 0.033 nM | 88000
